# Assay results reported in patent US6525059B1, “Substituted pyrazoles as p38 kinase inhibitors” (G. D. Searle & Company, priority 1998, dated 2003).
# Experiments:
# [1] = target: T1, human GST-p38 kinase alpha (Homo sapiens, UniProt Q16539); assay: p38 kinase in vitro assay, second format, phosphorylation of EGFRP with 33P-ATP; type: biochemical; details: Table 10, 10% DMSO; @ 1.0 hour; read-out: p38α Kinase Assay IC50
# T1 construct: The coding region of the human p38a cDNA was obtained by PCR-amplification from RNA isolated from the human monocyte cell line THP.1; made in house; host or cells: E. coli DH10B
# T1 sequence (Q16539 whole entry): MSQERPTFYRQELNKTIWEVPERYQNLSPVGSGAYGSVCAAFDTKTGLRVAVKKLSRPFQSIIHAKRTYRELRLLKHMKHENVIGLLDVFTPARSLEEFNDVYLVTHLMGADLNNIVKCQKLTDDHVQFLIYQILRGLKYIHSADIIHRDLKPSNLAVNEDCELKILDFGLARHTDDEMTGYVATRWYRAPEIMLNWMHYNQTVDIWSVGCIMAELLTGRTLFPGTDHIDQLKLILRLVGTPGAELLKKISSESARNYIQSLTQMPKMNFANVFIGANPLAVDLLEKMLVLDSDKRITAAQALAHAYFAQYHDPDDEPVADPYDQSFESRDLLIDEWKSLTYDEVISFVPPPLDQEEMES
# Summary of the method: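 Activated human GST-p38α (pre-activated with GST-MKK6, 1 h, 30 °C) phosphorylates EGFR 21-mer peptide (200 μM) with 50 μM ATP plus γ-33P-ATP, pH 7.5, 60 min at room temperature. Unreacted ATP removed by AG 1×8 resin; supernatant scintillation-counted.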
# [2] = system: TNF-α; assay: Rat assay: LPS-challenged rats, serum TNF-α by ELISA; type: in vivo; details: Rattus norvegicus, po
# [3] = system: TNF-α; assay: LPS stimulation of TNF production by U937 cells; type: cell-based, human; details: Homo sapiens, U-937, LPS-stimulated U937 cells; read-out: U937 Cell Assay IC50
# Summary of the method: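 PMA-differentiated human U937 cells (20 ng/ml PMA, 24 h, then 24-48 h rest) at 2 million cells/ml, 0.1% DMSO final, stimulated with E. coli LPS (100 ng/ml final) for 4 h at 37° C. TNF-α in medium measured by ELISA; IC50 in μM.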
# [4] = target: T2, human p38 kinase alpha (Homo sapiens, UniProt Q16539); assay: p38 kinase in vitro assay, phosphorylation of biotinylated PHAS-I with gamma 32P-ATP; type: biochemical; details: activated human p38 kinase alpha, PHAS-I substrate, 50 μM unlabeled ATP; read-out: p38 kinase IC50
# T2 construct: The coding region of the human p38a cDNA was obtained by PCR-amplification from RNA isolated from the human monocyte cell line THP.1; GST (N); made in house; host or cells: E. coli DH10B
# T2 sequence (Q16539 whole entry): as above
# Summary of the method: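 Radiometric filter-capture read-out: streptavidin plates trap biotin-PHAS-I labelled by activated (MKK6) human p38α from γ-32P-ATP. Buffer 25 mM HEPES pH 7.5, 10 mM magnesium acetate, 50 μM cold ATP; reactions 1 h or overnight at 30 °C; inhibitors 10-fold dilutions 100 to 0.001 μM, triplicates, 1% DMSO.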
Structure (SMILES),IC50 [1] [µM],melting point,other results
"Cc1cccc(-c2n[nH]c(N3CCN(C)CC3)c2-c2ccncc2)c1 [A-389, Step 4]",0.16,261.9 to 262 °C,"inhibition in vivo at 5 mg/kg ([2]; Table 10, dose 5.0 mg/kg, read-out: Rat LPS Assay % Inhibition): 55%; inhibition in vivo at 20 mg/kg ([2]; Table 10, dose 20.0 mg/kg): 94%"
"Fc1ccc(-c2[nH]nc(Nc3ccccc3)c2-c2ccncc2)cc1 [Example A-20, 5-(4-Fluorophenyl)-N-phenyl-4-(4-pyridinyl)-1H-pyrazol-3-amine]",,218 to 219 °C,IC50 [3]: 1.09 µM
"Fc1ccc(-c2[nH]nc(-c3ccccc3)c2-c2ccncc2)cc1 [Example A-21, 4-[5-(4-fluorophenyl)-3-phenyl-1H-pyrazol-4-yl]pyridine]",,265 to 267 °C,IC50 [3]: 0.077 µM
"Fc1ccc(-c2n[nH]c(-c3ccncc3)c2-c2ccncc2)cc1 [Example A-23, 4-[3-(4-fluorophenyl)-4-(4-pyridinyl)-1H-pyrazol-5-yl]pyridine]",,304 °C,IC50 [4]: 1.5 µM
"CNc1nccc(-c2c[nH]nc2-c2ccc(F)cc2)n1 [Example A-302, 4-[3-(4-fluorophenyl)-1H-pyrazol-4-yl]-N-methyl-2-pyrimidinamine]",,217 to 218 °C,
"Fc1ccc(-c2n[nH]cc2-c2ccnc(NCc3ccccc3)n2)cc1 [Example A-303, 4-[3-(4-fluorophenyl)-1H-pyrazol-4-yl]-N-(phenylmethyl)-2-pyrimidinamine]",,216 to 217 °C,
"Fc1ccc(-c2[nH]ncc2-c2ccnc(NC3CC3)n2)cc1 [Example A-304, N-cyclopropyl-4-[3-(4-fluorophenyl)-1H-pyrazol-4-yl]-2-pyrimidinamine]",,203 to 204 °C,
"COc1ccc(CNc2nccc(-c3cn[nH]c3-c3ccc(F)cc3)n2)cc1 [Example A-305, 4-[3-(4-fluorophenyl)-1H-pyrazol-4-yl]-N-[(4-methoxyphenyl)methyl)-2-pyrimidinamine]",,183 to 185 °C,
"Nc1nccc(-c2cn[nH]c2-c2ccc(F)cc2)n1 [Example A-306, 4-[3-(4-fluorophenyl)-1H-pyrazol-4-yl]-2-pyrimidinamine]",,273 to 274 °C,
"CCOC(=O)Nc1nccc(-c2cn[nH]c2-c2ccc(F)cc2)n1 [Example A-308, Ethyl [4-[3-(4-fluorophenyl)-1H-pyrazol-4-yl]-2-pyrimidinyl]carbamate]",,163 to 165 °C,
"Cc1cccc(-c2[nH]ncc2-c2ccncn2)c1 [Example A-309, 4-[3-(3-methylphenyl)-1H-pyrazol-4-yl]pyrimidine]",,151.67 °C,
"Fc1cccc(-c2[nH]ncc2-c2ccncn2)c1 [Example A-311, 4-[3-(3-fluorophenyl)-1H-pyrazol-4-yl]pyrimidine]",,168.58 °C,
"Fc1ccc(-c2[nH]ncc2-c2ccncn2)cc1 [Example A-312, 4-[3-(4-fluorophenyl)-1H-pyrazol-4-yl]pyrimidine]",,191.47 °C,
"Clc1ccc(-c2[nH]nc(N3CCNCC3)c2-c2ccncc2)cc1 [Example A-328, 1-[5-(4-chlorophenyl)-4-(4-pyridinyl)-1H-pyrazol-3-yl]piperazine]",,264 to 265 °C,
Cc1ccccc1C(=O)C(=C1SCS1)c1ccncc1 [Example A-392],29.7,126.5 to 126.6 °C,
O=C(C(=C1SCS1)c1ccncc1)c1cccc(Br)c1 [Example A-393],2.32,159.6 to 159.7 °C,
Cc1ccc(C(=O)C(=C2SCS2)c2ccncc2)cc1C [Example A-394],9.11,198.8 to 198.9 °C,
COc1ccc(C(=O)C(=C2SCS2)c2ccncc2)cc1Cl [Example A-397],30,191.5 to 192.5 °C,
COc1ccc(C(=O)C(=C2SCS2)c2ccncc2)cc1 [Example A-399],22.9,203 to 204.1 °C,
O=C(C(=C1SCS1)c1ccncc1)c1ccc(I)cc1 [Example A-401],,257.6 to 257.7 °C,
CN(C)c1ccc(C(=O)C(=C2SCS2)c2ccncc2)cc1 [Example A-402],28.9,197.3 to 202.2 °C,
"C=Cc1ccc(-c2[nH]nc(N3CCN(C)CC3)c2-c2ccncc2)cc1 [Example A-418, 1-[5-(4-ethenylphenyl)-4-(4-pyridinyl)-1H-pyrazol-3-yl]-4-methylpiperazine]",0.12,> 300 °C,
"CN1CCN(c2n[nH]c(-c3ccc(N(C)C)cc3)c2-c2ccncc2)CC1 [Example A-421, 1-[5-(4-dimethylaminophenyl)-4-(4-pyridinyl)-1H-pyrazol-3-yl]-4-methylpiperazine]",,> 300 °C (dec.),
"CN1CCN(c2n[nH]c(-c3cccc(C#N)c3)c2-c2ccncc2)CC1 [Example A-422, 1-[5-(3-cyanophenyl)-4-(4-pyrdinyl)-1H-pyrazol-3-yl]4-methylpiperazine]",,223.4 to 224.3 °C,

Structure (SMILES),IC50 [1] [µM],melting point,other results
"CSc1ccc(-c2[nH]nc(N3CCN(C)CC3)c2-c2ccncc2)cc1 [Example A-423, 1-[5-(4-thiomethoxyphenyl)-4-(4-pyridinyl)-1H-pyrazol-3-yl]-4-methylpiperazine]",,275.6 to 281.9 °C,
CN1CCN(c2n[nH]c(-c3cccc(C(F)(F)F)c3)c2-c2ccncc2)CC1 [Example A-424],,212.6 to 213.7 °C,
CN1CCN(c2n[nH]c(-c3ccc(C(F)(F)F)cc3)c2-c2ccncc2)CC1 [Example A-425],,240.5 °C (dec.),
CN1CCN(c2n[nH]c(-c3cccs3)c2-c2ccncc2)CC1 [Example A-426],,199.7 °C (dec.),
COC(=O)CNc1[nH]nc(-c2ccc(Cl)cc2)c1-c1ccncc1 [Example A-429],56.3,195.4 to 196.8 °C,
O=C(O)CNc1[nH]nc(-c2ccc(Cl)cc2)c1-c1ccncc1.[Li+] [Example A-430],> 100,> 300 °C,
O=C(Cc1ccncc1)c1ccc(Cl)cc1 [Example A-431],,95.5 to 97.3 °C,
CSC(SC)=C(C(=O)c1ccc(F)cc1)c1ccncc1 [Example A-432],,80.2 to 82.1 °C,
CSC(SC)=C(C(=O)c1ccc(Cl)cc1)c1ccncc1 [Example A-433],,87.6 to 88.2 °C,
CSc1[nH]nc(-c2ccc(F)cc2)c1-c1ccncc1 [Example A-434],5.84,249.9 °C,
Clc1ccc(-c2n[nH]c(OCCN3CCOCC3)c2-c2ccncc2)cc1 [Example A-440],,198.9 to 199.9 °C,
COc1ccc(COc2[nH]nc(-c3ccc(Cl)cc3)c2-c2ccncc2)cc1 [Example A-444],6.99,229.1 to 229.2 °C,
COc1ccc(CSC(SCc2ccc(OC)cc2)=C(C(=O)c2ccc(F)cc2)c2ccncc2)cc1 [Example A-450],> 100,118.5 to 120.6 °C,
Sc1[nH]nc(-c2ccc(Cl)cc2)c1-c1ccncc1 [Example A-453],10.2,266.3 to 268.9 °C,
Fc1ccc(-c2n[nH]c(S)c2-c2ccncc2)cc1 [Example A-454],8.41,261.3 to 263.9 °C,
CC(C)(C)OC(=O)N1CCC([S+]([O-])c2[nH]nc(-c3ccc(Cl)cc3)c2-c2ccncc2)CC1 (stereo not shown) [Example A-464],> 100,215.8 to 215.9 °C,
CC(C)(C)OC(=O)N1CCC(S(=O)(=O)c2[nH]nc(-c3ccc(Cl)cc3)c2-c2ccncc2)CC1 [Example A-465],> 100,228 to 230.8 °C,
COc1ccc(C[S+]([O-])c2[nH]nc(-c3ccc(F)cc3)c2-c2ccncc2)cc1 (stereo not shown) [Example A-466],20.1,189.5 °C,
COc1ccc(CS(=O)(=O)c2[nH]nc(-c3ccc(F)cc3)c2-c2ccncc2)cc1 [Example A-467],21.4,241.9 to 242 °C,
Clc1ccc(-c2n[nH]c(SCc3nc4ccccc4[nH]3)c2-c2ccncc2)cc1 [Example A-470],10.4,257.7 °C,
CC(C#N)Sc1[nH]nc(-c2ccc(Cl)cc2)c1-c1ccncc1 (stereo not shown) [Example A-477],0.34,211.1 to 212.8 °C,
Cc1ccc(S(=O)(=O)Nc2[nH]nc(-c3ccc(Cl)cc3)c2-c2ccncc2)cc1 [Example A-484],,284.3 to 284.4 °C,
"CN1CCN(c2[nH]nc(C3CCCCC3)c2-c2ccncc2)CC1 [Example A-485, 1-[cyclohexyl-4-(4-pyridinyl)-1H-pyrazol-3-yl]-4-methylpiperazine]",,> 300 °C (dec.),
